SMILES strings stand for the structures. Bridge positions count the residues as written; N and C are the ends. Peptide text beside a SMILES is read from it. * marks the point of attachment. Galloyl = O=C(c1cc(O)c(O)c(O)c1)*

Series [1] in a line: Mineralising effects on enamel blocks after pH cycling (SEM-EDS, Micro-CT, XRD). More on the design: species or system human. As to conditions: sound enamel treated twice daily with 160 μM, n = 8 per group, mean ± SD; for Calcium-to-phosphate molar ratio: 8 days pH cycling (16 h pH 4.5, 8 h pH 7.0), SEM-EDS; for Mineral loss / Lesion depth: 8 days pH cycling, Micro-CT; for Mineral loss: MDV control area − MDV demineralised area. Here is the method: A total of 40 enamel blocks were prepared from extracted sound human molars. The pH-cycling procedure (16 h demineralisation at pH 4.5 and 8 h remineralisation at pH 7.0) was performed on enamel blocks for 8 days, using solutions that contained calcium and phosphate. The enamel blocks from the same tooth were treated twice daily with 160 μM GAPI (GAPI Group), 160 μM GA (GA Group), 160 μM PI (PI Group) and sterile deionised water (Water Group). The structure of the enamel surface was examined using SEM (n = 8 per group). The elemental analysis of enamel surface was conducted using affiliated energy-dispersive X-ray spectroscopy (EDS). The calcium-to-phosphorus molar ratio was calculated.
The mineral loss and lesion depth on the enamel blocks were assessed using microcomputed tomography (Micro-CT) (1172, SkyScan, Antwerp, Belgium) (n = 8 per group). The parameters of Micro-CT were 80 kV voltage and 100 μA current with a voxel size of 12 μm^3. The image was reconstructed with NRecon software 1.7.4.6 (SkyScan, Antwerp, Belgium) and analysed using CTAn 1.20.3.0 (SkyScan, Antwerp, Belgium) to determine the lesion depth and mineral density values (MDVs, gHApcm^−3). The mineral loss = MDV of the control area − MDV of the demineralised area.
The diffraction patterns of the enamel blocks were evaluated using X-ray diffraction analysis (XRD) (Rigaku SmartLab 9 kW, […]) (n = 2 per group).

Series [2] can be described thus: Stability in human saliva (HPLC). Type of series: in vitro ADME. The note with it: 37 °C. Here is the method: The stability of peptides in human saliva (collected from six individual healthy volunteers; three males and three females; minimum age, 29; and maximum age, 36) was investigated by testing the remaining peptide concentration via HPLC system (Waters Pacific Pte Ltd., Singapore). The test was processed following a previous experimental protocol. After centrifuging the saliva and collecting the supernatant, GAPI was added to the sample and incubated at 37 °C for 60 min. A 1 mL sample was taken and analysed using HPLC system.

Series [3] relates to S. mutans in three-species biofilm. Kind of series: Growth kinetics of multiple-species biofilm, PMA-qPCR. Type of series: cell-based, Streptococcus mutans. Here is the method:
A multiple-species cariogenic biofilm consisting of S. mutans, L. casei and C. albicans was cultured following a previous protocol. The architecture of the multiple-species biofilm with or without GAPI treatment was assessed using scanning electron microscopy (SEM) and confocal laser scanning microscopy (CLSM). Propidium iodide and […] (DAPI), which highlight bacterial cells, and Concanavalin A (ConA), which labels C. albicans, were used to stain the multiple-species biofilm. The growth kinetics of the multiple-species biofilm were analysed using propidium monoazide–quantitative polymerase chain reaction (PMA-qPCR) (Supplementary Material S1).
(Quantitative PCR measures a nucleic acid by following its amplification.)

For `O=C(O)c1cc(O)c(O)c(O)c1` [GA, gallic acid], in series [1], the Calcium-to-phosphate molar ratio was 1.82 ± 0.08, the Mineral loss is recorded as 0.88 ± 0.24 gHApcm^−3 and the Lesion depth is given as 62 ± 12 µm.
For the compound `CC(C)[C@@H]1NC(=O)[C@H](CCCN=C(N)N)NC(=O)[C@H](Cc2ccccc2)NC(=O)[C@@H](NC(=O)[C@H](Cc2c[nH]c3ccccc23)NC(=O)[C@H](CCCN=C(N)N)NC(=O)[C@H](CCCN=C(N)N)NC(=O)c2cc(O)c(O)c(O)c2)CSSC[C@@H](C(=O)N[C@@H](CCCN=C(N)N)C(=O)O)NC(=O)[C@H](CCCCN)NC(=O)[C@H](CCCN=C(N)N)NC(=O)[C@H](Cc2ccc(O)cc2)NC(=O)[C@@H]2CSSC[C@H](NC1=O)C(=O)N[C@@H](Cc1ccc(O)cc1)C(=O)N[C@@H](CCCN=C(N)N)C(=O)NCC(=O)N[C@@H](Cc1ccccc1)C(=O)N2` [GAPI, Gallic-Acid-Polyphemusin-I] (Galloyl-RRWCFRVCYRGFCYRKCR-OH; disulfide 4-17, 8-13), the “time stable in saliva” value in series [2] was “at least 60 min”.
Regarding `CC(C)[C@@H]1NC(=O)[C@H](CCCNC(=N)N)NC(=O)[C@H](Cc2ccccc2)NC(=O)[C@@H](NC(=O)[C@H](Cc2c[nH]c3ccccc23)NC(=O)[C@H](CCCNC(=N)N)NC(=O)[C@H](CCCNC(=N)N)NC(=O)c2cc(O)c(O)c(O)c2)CSSC[C@@H](C(=O)N[C@@H](CCCNC(=N)N)C(=O)O)NC(=O)[C@H](CCCCN)NC(=O)[C@H](CCCNC(=N)N)NC(=O)[C@H](Cc2ccc(O)cc2)NC(=O)[C@@H]2CSSC[C@H](NC1=O)C(=O)N[C@@H](Cc1ccc(O)cc1)C(=O)N[C@@H](CCCNC(=N)N)C(=O)NCC(=O)N[C@@H](Cc1ccccc1)C(=O)N2` [GAPI, Gallic-Acid-Polyphemusin-I] (Galloyl-RRWCFRVCYRGFCYRKCR-OH; disulfide 4-17, 8-13; C-terminus assumed), the “reduction of S. mutans in biofilm versus untreated” value in series [3] is “more than 10 fold”. In series [1], the Calcium-to-phosphate molar ratio amounted to 1.81 ± 0.05, the Mineral loss came out at 0.89 ± 0.20 gHApcm^−3 and the Lesion depth was 64 ± 7 µm.
On to `CC(C)[C@@H]1NC(=O)[C@H](CCCNC(=N)N)NC(=O)[C@H](Cc2ccccc2)NC(=O)[C@@H](NC(=O)[C@H](Cc2c[nH]c3ccccc23)NC(=O)[C@H](CCCNC(=N)N)NC(=O)[C@@H](N)CCCNC(=N)N)CSSC[C@@H](C(=O)N[C@@H](CCCNC(=N)N)C(=O)O)NC(=O)[C@H](CCCCN)NC(=O)[C@H](CCCNC(=N)N)NC(=O)[C@H](Cc2ccc(O)cc2)NC(=O)[C@@H]2CSSC[C@H](NC1=O)C(=O)N[C@@H](Cc1ccc(O)cc1)C(=O)N[C@@H](CCCNC(=N)N)C(=O)NCC(=O)N[C@@H](Cc1ccccc1)C(=O)N2` [PI, Polyphemusin I] (H-RRWCFRVCYRGFCYRKCR-OH; disulfide 4-17, 8-13; N-terminus and C-terminus assumed), for which, in series [1], the Calcium-to-phosphate molar ratio is listed as 1.70 ± 0.06, the Mineral loss was found to be 1.32 ± 0.26 gHApcm^−3 and the Lesion depth stood at 96 ± 9 µm.
